Laboratory results reported in US20260306527A1, “PRMT INHIBITOR COMPOUNDS AND THE USES THEREOF” (Purdue Research Foundation, priority 2023, published 2026).
“Also recorded” adds a separate entry of the source.

Key:
Type in all cases: biochemical
PRMT4 = target: T1, PRMT4 (Homo sapiens, UniProt Q86X55); experiment: radioactive assay (Reaction Biology Corp.), inhibition of PRMT4
T1 sequence (Q86X55 1-608): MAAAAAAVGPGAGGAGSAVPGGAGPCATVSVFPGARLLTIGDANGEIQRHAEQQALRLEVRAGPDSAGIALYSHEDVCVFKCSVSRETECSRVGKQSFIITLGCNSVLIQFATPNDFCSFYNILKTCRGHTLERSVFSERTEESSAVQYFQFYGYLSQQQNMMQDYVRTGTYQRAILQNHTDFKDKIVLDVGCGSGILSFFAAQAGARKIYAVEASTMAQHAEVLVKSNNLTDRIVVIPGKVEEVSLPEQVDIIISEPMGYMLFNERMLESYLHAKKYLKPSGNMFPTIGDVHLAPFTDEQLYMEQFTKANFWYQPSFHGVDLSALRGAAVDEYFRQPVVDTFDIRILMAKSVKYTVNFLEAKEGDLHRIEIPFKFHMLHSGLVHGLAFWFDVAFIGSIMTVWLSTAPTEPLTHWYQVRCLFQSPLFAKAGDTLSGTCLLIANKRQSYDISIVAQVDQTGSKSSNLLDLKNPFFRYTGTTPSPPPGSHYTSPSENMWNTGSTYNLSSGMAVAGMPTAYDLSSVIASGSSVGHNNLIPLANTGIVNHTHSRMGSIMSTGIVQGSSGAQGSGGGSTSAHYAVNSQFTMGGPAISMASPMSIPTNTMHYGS
Procedure: (§1) Next, the inhibition activity of the library was investigated for five PRMT members from type I PRMTs.
(§2) The PRMT 4, 6 and 8 methylation assays were performed by Reaction Biology corp.

PRMT1 = target: T2, PRMT1 (Homo sapiens, UniProt Q99873); experiment: SAHH-coupled fluorescence assay, inhibition of PRMT1; conditions: for IC50: read-out: IC50 FOR PRMT1
T2 construct: made in house
T2 sequence (Q99873 whole entry, species assumed): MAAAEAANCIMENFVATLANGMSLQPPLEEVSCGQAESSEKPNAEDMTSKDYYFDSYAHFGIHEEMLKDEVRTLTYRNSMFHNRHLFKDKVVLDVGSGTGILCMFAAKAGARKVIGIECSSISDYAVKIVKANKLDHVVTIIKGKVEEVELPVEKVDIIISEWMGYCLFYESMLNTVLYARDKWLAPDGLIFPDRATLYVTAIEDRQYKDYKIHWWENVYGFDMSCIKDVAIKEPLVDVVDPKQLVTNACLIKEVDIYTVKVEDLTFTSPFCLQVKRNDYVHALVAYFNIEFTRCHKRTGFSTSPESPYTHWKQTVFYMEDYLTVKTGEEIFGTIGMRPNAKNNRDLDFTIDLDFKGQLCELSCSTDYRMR
Procedure: (§3) A fluorescence-based SAHH-coupled assay was applied to study the inhibition activity of all synthesized compounds on PRMT 1 and 3.
(§4) The PRMT1 methylation assay was performed under the following conditions in a final well volume of 100 μL: 2.5 mM HEPES (pH=7.0), 25 mM NaCl, 25 μM EDTA, 50 μM TCEP, 0.01% Triton X-100, 5 μM SAHH, 0.1 μM PRMT1, 10 μM AdoMet, and 10 μM ThioGlo4. […] The fluorescence signal was monitored on a BMG CLARIOstar microplate reader with excitation at 400 nm and emission at 465 nm for 15 min. Data were processed using GraphPad Prism software 8.0.
as §1
as §4, with “A fluorescence-based SAHH-coupled assay was applied to determine the inhibition activity of all synthesized compounds on PRMT 1 and 3. The PRMT1” for “The PRMT1”, “software 8.0. All experiments were performed in duplicate.” for “software 8.0.”

PRMT6 = PRMT6 (Homo sapiens, UniProt Q96LA8); experiment: radioactive assay (Reaction Biology Corp.), inhibition of PRMT6
Chain of PRMT6 (Q96LA8 whole entry, species assumed): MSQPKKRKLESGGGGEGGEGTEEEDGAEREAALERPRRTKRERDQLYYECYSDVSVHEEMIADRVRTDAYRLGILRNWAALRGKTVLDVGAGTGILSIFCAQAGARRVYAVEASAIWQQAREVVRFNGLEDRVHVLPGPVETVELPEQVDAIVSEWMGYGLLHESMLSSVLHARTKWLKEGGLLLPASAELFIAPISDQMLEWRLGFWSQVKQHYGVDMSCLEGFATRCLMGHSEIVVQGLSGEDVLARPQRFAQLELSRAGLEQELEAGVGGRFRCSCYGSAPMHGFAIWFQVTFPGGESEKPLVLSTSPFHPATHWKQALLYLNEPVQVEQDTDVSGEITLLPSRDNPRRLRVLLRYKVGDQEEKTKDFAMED
Procedure: as §1, §2

PRMT3 = PRMT3 (Homo sapiens, UniProt O60678); experiment: SAHH-coupled fluorescence assay, inhibition of PRMT3; set-up: PRMT3 (residues 211-531) was cloned into the pET28a-MHL expression vector; tag of the pET28a-MHL vector (not described); made in house; host or cells: Escherichia coli BL21(DE3)
Chain of PRMT3 (O60678 211-531): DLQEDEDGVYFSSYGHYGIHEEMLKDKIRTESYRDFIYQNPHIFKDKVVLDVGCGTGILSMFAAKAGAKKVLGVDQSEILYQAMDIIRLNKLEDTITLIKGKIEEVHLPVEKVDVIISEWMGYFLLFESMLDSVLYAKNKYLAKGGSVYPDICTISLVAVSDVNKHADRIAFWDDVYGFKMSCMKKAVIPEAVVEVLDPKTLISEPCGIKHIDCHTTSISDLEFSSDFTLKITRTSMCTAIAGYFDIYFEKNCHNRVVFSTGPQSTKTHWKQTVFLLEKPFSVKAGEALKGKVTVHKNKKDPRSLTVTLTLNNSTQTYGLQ
Procedure: as §3
(§5) The PRMT3 methylation assay was performed under the following conditions in a final well volume of 100 μL: 20 mM Tris (pH=7.5), 0.01% Triton X-100, 5 μM SAHH, 0.25 μM PRMT3, 30 μM AdoMet, and 15 μM ThioGlo4. […] Fluorescence was monitored on a BMG CLARIOstar microplate reader with excitation 380 nm and emission 505 nm. Data were processed by using GraphPad Prism software 8.0. All experiments were performed in duplicate.
as §1
as §5, with “8.0.” for “8.0. All experiments were performed in duplicate.”

PRMT8 = PRMT8 (Homo sapiens, UniProt Q9NR22); experiment: radioactive assay (Reaction Biology Corp.), inhibition of PRMT8
Chain of PRMT8 (Q9NR22 whole entry, species assumed): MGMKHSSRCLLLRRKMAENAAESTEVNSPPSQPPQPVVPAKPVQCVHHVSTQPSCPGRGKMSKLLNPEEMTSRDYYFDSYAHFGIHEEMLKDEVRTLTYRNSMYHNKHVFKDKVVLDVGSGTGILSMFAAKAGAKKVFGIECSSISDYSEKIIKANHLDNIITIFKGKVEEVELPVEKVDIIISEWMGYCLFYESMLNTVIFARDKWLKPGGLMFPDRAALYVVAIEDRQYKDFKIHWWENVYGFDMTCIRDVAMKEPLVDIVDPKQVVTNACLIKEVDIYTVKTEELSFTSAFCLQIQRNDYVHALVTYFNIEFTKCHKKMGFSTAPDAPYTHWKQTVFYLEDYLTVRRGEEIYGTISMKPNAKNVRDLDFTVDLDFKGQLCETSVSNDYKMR
Procedure: as §1, §2

| inhibition at 10 µM (PRMT4) [%] | inhibition at 10 µM (PRMT1) [%] | inhibition at 10 µM (PRMT6) [%] | inhibition at 10 µM (PRMT3) [%] | inhibition at 10 µM (PRMT8) [%] | IC50 (PRMT1) [nM] | Compound | PRMT4 inhibition (PRMT4) |
| --- | --- | --- | --- | --- | --- | --- | --- |
| 47 | 14 | 49 | 6 | 22 |  | Nc1ncnc2c1ncn2[C@@H]1O[C@H](CSCCCNC(=O)NCCc2ccccc2)[C@@H](O)[C@H]1O [Compound 7r] |  |
| 99 | 15 | 43 | 10 | 69 |  | Nc1ncnc2c1ncn2[C@@H]1O[C@H](CSCCNCc2cccc(-c3ccncc3)c2)[C@@H](O)[C@H]1O [Compound 10k] |  |
| 36 | 76 | 88 | 3 | 74 | 920 ± 91 | N=C(NCCCSC[C@H]1O[C@@H](n2cnc3c(NCCCc4ccccc4)ncnc32)[C@H](O)[C@@H]1O)NCC1CC1 [Compound 19f] |  |
| 99 | 54 | 66 | 25 | 54 |  | Nc1ncnc2c1ncn2[C@@H]1O[C@H](CSCCCNCc2cccc(-c3ccoc3)c2)[C@@H](O)[C@H]1O [Compound 10p] |  |
| 50 | 80 | 93 | 8 | 91 | 550 ± 51 | N=C(NCCCSC[C@H]1O[C@@H](n2cnc3c(NCCCc4ccccc4)ncnc32)[C@H](O)[C@@H]1O)NC1CCC1 [Compound 19c] |  |
| 100 | 7 | 53 | 8 | 62 |  | Nc1cccc(-c2cccc(CNCCSC[C@H]3O[C@@H](n4cnc5c(N)ncnc54)[C@H](O)[C@@H]3O)c2)c1 [Compound 10l] |  |
| 17 | 27 | -6 | 9 | 2 |  | Nc1ncnc2c1ncn2[C@@H]1O[C@H](CSCCNC(=O)NCc2ccc(-c3cc[nH]n3)cc2)[C@@H](O)[C@H]1O [Compound 8f] |  |
| 42 | 5 | 89 | 5 | 7 |  | Nc1ncnc2c1ncn2[C@@H]1O[C@H](CSCCCNC(=O)NCc2ccc3c(c2)OCO3)[C@@H](O)[C@H]1O [Compound 7o] |  |
| 47 | 2 | -4 | 9 | 38 |  | Nc1ncnc2c1ncn2[C@@H]1O[C@H](CSCCOc2ccc(-c3ccc(Cl)cc3)cc2)[C@@H](O)[C@H]1O [Compound 14a] |  |
| 42 | 21 | 82 | 10 | 3 |  | Nc1ncnc2c1ncn2[C@@H]1O[C@H](CSCCNC(=O)NCc2ccc(-c3ccc(O)cc3)cc2)[C@@H](O)[C@H]1O [Compound 8c] |  |
| 97 | 63 | 36 | 25 | 66 |  | Nc1ncnc2c1ncn2[C@@H]1O[C@H](CSCCCNCc2cccc(-c3cccc(F)c3)c2)[C@@H](O)[C@H]1O [Compound 10q] |  |
| 99 | 16 | 57 | 16 | 71 |  | Nc1ncnc2c1ncn2[C@@H]1O[C@H](CSCCNCc2cccc(-c3ccc(Cl)cc3)c2)[C@@H](O)[C@H]1O [Compound 10a] | equal potency on PRMT4; also recorded: more potent PRMT4 inhibition activity than SGC8158 |
| 51 | 12 | 16 | 9 | 21 |  | COc1cc2nc(-c3ccc(F)c(O)c3)nc(NCCSC[C@H]3O[C@@H](n4cnc5c(N)ncnc54)[C@H](O)[C@@H]3O)c2cc1OC [Compound 12f] |  |
| 34 | 6 | -12 | 2 | -10 |  | Nc1ncnc2c1ncn2[C@@H]1O[C@H](CSCCNC(=O)NC2CCCCC2)[C@@H](O)[C@H]1O [Compound 7i, 1-(2-((((2S,3S,4R,5R)-5-(6-amino-9H-purin-9-yl)-3,4-dihydroxytetrahydrofuran-2-yl)methyl)thio)ethyl)-3-cyclohexylurea] |  |
| 53 | 8 | 22 | 6 | -1 |  | Nc1ncnc2c1ncn2[C@@H]1O[C@H](CSCCNC(=O)NCCc2ccccc2)[C@@H](O)[C@H]1O [Compound 7c, 1-(2-((((2S,3S,4R,5R)-5-(6-amino-9H-purin-9-yl)-3,4-dihydroxytetrahydrofuran-2-yl)methyl)thio)ethyl)-3-phenethylurea] |  |
| 27 | 10 | 3 | 4 | 14 |  | CCNC(=O)NCCSC[C@H]1O[C@@H](n2cnc3c(N)ncnc32)[C@H](O)[C@@H]1O [Compound 7g, 1-(2-((((2S,3S,4R,5R)-5-(6-amino-9H-purin-9-yl)-3,4-dihydroxytetrahydrofuran-2-yl)methyl)thio)ethyl)-3-ethylurea] |  |
| 100 | 99 | 98 | 60 | 100 |  | N=C(NCCCSC[C@H]1O[C@@H](n2cnc3c(N)ncnc32)[C@H](O)[C@@H]1O)Nc1cccc(-c2n[nH]cc2C(F)(F)F)c1 [Compound 6q] |  |
| 100 | 11 | 49 | 12 | 68 |  | Nc1ncnc2c1ncn2[C@@H]1O[C@H](CSCCNCc2cccc(-c3cccc(F)c3)c2)[C@@H](O)[C@H]1O [Compound 10c] |  |
| 49 | 13 | 7 | 5 | -4 |  | Nc1ncnc2c1ncn2[C@@H]1O[C@H](CSCCNC(=O)NCCCc2ccccc2)[C@@H](O)[C@H]1O [Compound 7b, 1-(2-((((2S,3S,4R,5R)-5-(6-amino-9H-purin-9-yl)-3,4-dihydroxytetrahydrofuran-2-yl)methyl)thio)ethyl)-3-(3-phenylpropyl)urea] |  |
| 58 | 23 | 49 | 9 | -12 |  | N=C(NCCCSC[C@H]1O[C@@H](n2cnc3c(N)ncnc32)[C@H](O)[C@@H]1O)Nc1cccc(F)c1 [Compound 7s] |  |
| 62 | 15 | 43 | 15 | 35 |  | COc1cc2nc(-c3cccc(F)c3)nc(NCCSC[C@H]3O[C@@H](n4cnc5c(N)ncnc54)[C@H](O)[C@@H]3O)c2cc1OC [Compound 12c] |  |
